# Measured values from PubChem BioAssay AID2060507 (Molecular Pharmacology Branch, DTP, NCI, 2025).
# System: 519858-162-T-J1-PDC complex spheroid viability
# Experiment: Anticancer human tumor 519858-162-T-J1-PDC patient-derived colon adenocarcinoma cell line growth inhibition [GQUAD]
# Conditions: for IC50: curve of first compound; for viability, T/C: stronger effect = lower value
# Outline: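 Multi-cell-type spheroids of tumor cells with HUVEC and mesenchymal stem cells, treated with drug combinations. Concentrations descend in half-log steps from near clinical Cmax, or from 10 microM where Cmax is unknown; viability read-out.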
# [1] = second compound 0.0316 µM, first compound 0.0316 µM
# [2] = second compound 0.0316 µM, first compound 0.1 µM
# [3] = second compound 0.0316 µM, first compound 0.316 µM
# [4] = second compound 0.0316 µM, first compound 1 µM
# [5] = second compound 0.0316 µM, first compound 3.16 µM
# [6] = second compound 0.0316 µM, first compound 10 µM
# [7] = second compound 0.1 µM, first compound 0.0316 µM
# [8] = second compound 0.1 µM, first compound 0.1 µM
# [9] = second compound 0.1 µM, first compound 0.316 µM
# [10] = second compound 0.1 µM, first compound 1 µM
# [11] = second compound 0.1 µM, first compound 3.16 µM
# [12] = second compound 0.1 µM, first compound 10 µM
# [13] = second compound 0.316 µM, first compound 0.0316 µM
# [14] = second compound 0.316 µM, first compound 0.1 µM
# [15] = second compound 0.316 µM, first compound 0.316 µM
# [16] = second compound 0.316 µM, first compound 1 µM
# [17] = second compound 0.316 µM, first compound 3.16 µM
# [18] = second compound 0.316 µM, first compound 10 µM
# [19] = second compound 1 µM, first compound 0.0316 µM
# [20] = second compound 1 µM, first compound 0.1 µM
# [21] = second compound 1 µM, first compound 0.316 µM
# [22] = second compound 1 µM, first compound 1 µM
# [23] = second compound 1 µM, first compound 3.16 µM
# [24] = second compound 1 µM, first compound 10 µM
# [25] = second compound 3.16 µM, first compound 0.0316 µM
# [26] = second compound 3.16 µM, first compound 0.1 µM
# [27] = second compound 3.16 µM, first compound 0.316 µM
# [28] = second compound 3.16 µM, first compound 1 µM
# [29] = second compound 3.16 µM, first compound 3.16 µM
# [30] = second compound 3.16 µM, first compound 10 µM
# [31] = second compound 10 µM, first compound 0.0316 µM
# [32] = second compound 10 µM, first compound 0.1 µM
# [33] = second compound 10 µM, first compound 0.316 µM
# [34] = second compound 10 µM, first compound 1 µM
# [35] = second compound 10 µM, first compound 3.16 µM
# [36] = second compound 10 µM, first compound 10 µM
# 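Note: spheroids exposed to compounds for 7 days.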
# 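Throughout, for viability, T/C: 100% = DMSO vehicle control viability.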
structure (smiles),measurement,setting,value
COc1ccc([C@@H](O)c2cc(-c3ncnc4cc(N5CCOCC5)ccc34)c(F)cc2Cl)nn1 + Cc1[nH]c2ccc(F)cc2c1-c1nc2c3cccnc3c3ncccc3c2[nH]1,IC50,second compound 0.0316 µM,> 10 µM
same,IC50,second compound 0.1 µM,> 10 µM
same,IC50,second compound 0.316 µM,> 10 µM
same,IC50,second compound 1 µM,> 10 µM
same,IC50,second compound 3.16 µM,5.82 µM
same,IC50,second compound 10 µM,9.78 µM
same,"viability, T/C",[1],79%
same,"viability, T/C",[2],99.7%
same,"viability, T/C",[3],71.4%
same,"viability, T/C",[4],86.4%
same,"viability, T/C",[5],74.1%
same,"viability, T/C",[6],53%
same,"viability, T/C",[7],82.9%
same,"viability, T/C",[8],92.8%
same,"viability, T/C",[9],88.3%
same,"viability, T/C",[10],72.6%
same,"viability, T/C",[11],85.1%
same,"viability, T/C",[12],54.7%
same,"viability, T/C",[13],96%
same,"viability, T/C",[14],104%
same,"viability, T/C",[15],64%
same,"viability, T/C",[16],72.7%
same,"viability, T/C",[17],89.4%
same,"viability, T/C",[18],70.2%
same,"viability, T/C",[19],123%
same,"viability, T/C",[20],90.4%
same,"viability, T/C",[21],87%
same,"viability, T/C",[22],77.5%
same,"viability, T/C",[23],97.4%
same,"viability, T/C",[24],42.8%
same,"viability, T/C",[25],66.9%
same,"viability, T/C",[26],87.5%
same,"viability, T/C",[27],84.9%
same,"viability, T/C",[28],64.9%
same,"viability, T/C",[29],65.5%
same,"viability, T/C",[30],37.9%
same,"viability, T/C",[31],58.5%
same,"viability, T/C",[32],86.9%
same,"viability, T/C",[33],58.9%
same,"viability, T/C",[34],82.2%
same,"viability, T/C",[35],70.5%
same,"viability, T/C",[36],49.5%
COc1cccc2c1C(=O)c1c(O)c3c(c(O)c1C2=O)CC(O)(C(=O)CO)CC3OC1CC(N)C(O)C(C)O1 (stereo not drawn) + CN(C)c1ccc(Nc2c3ccc(NC(=O)CCN4CCCC4)cc3nc3cc(NC(=O)CCN4CCCC4)ccc23)cc1,IC50,second compound 0.0316 µM,> 10 µM
same,IC50,second compound 0.1 µM,> 10 µM
same,IC50,second compound 0.316 µM,> 10 µM
same,IC50,second compound 1 µM,8.56 µM
same,IC50,second compound 3.16 µM,> 10 µM
same,IC50,second compound 10 µM,> 10 µM
same,"viability, T/C",[1],80.7%
same,"viability, T/C",[2],124%
same,"viability, T/C",[3],97.7%
same,"viability, T/C",[4],72%
same,"viability, T/C",[5],71%
same,"viability, T/C",[6],58.1%
same,"viability, T/C",[7],90.6%
same,"viability, T/C",[8],84.6%
same,"viability, T/C",[9],104%
same,"viability, T/C",[10],80.8%
same,"viability, T/C",[11],60.5%
same,"viability, T/C",[12],60.1%
same,"viability, T/C",[13],88.4%
same,"viability, T/C",[14],58.5%
same,"viability, T/C",[15],79.7%
same,"viability, T/C",[16],65.1%
same,"viability, T/C",[17],62.2%
same,"viability, T/C",[18],75.5%
same,"viability, T/C",[19],85.5%
same,"viability, T/C",[20],71.9%
same,"viability, T/C",[21],56.4%
same,"viability, T/C",[22],100%
same,"viability, T/C",[23],65.2%
same,"viability, T/C",[24],47.1%
same,"viability, T/C",[25],74.9%
same,"viability, T/C",[26],60.6%
same,"viability, T/C",[27],80%
same,"viability, T/C",[28],66.8%
same,"viability, T/C",[29],63.2%
same,"viability, T/C",[30],55.8%
same,"viability, T/C",[31],57.1%
same,"viability, T/C",[32],62.9%
same,"viability, T/C",[33],57.1%
same,"viability, T/C",[34],60.1%
same,"viability, T/C",[35],50.3%
same,"viability, T/C",[36],68.8%
COc1cc(C2c3cc4c(cc3C(OC3OC5COC(C)OC5C(O)C3O)C3COC(=O)C23)OCO4)cc(OC)c1O (stereo not drawn) + Cc1[nH]c2ccc(F)cc2c1-c1nc2c3cccnc3c3ncccc3c2[nH]1,IC50,second compound 0.0316 µM,> 10 µM
same,IC50,second compound 0.1 µM,> 10 µM
same,IC50,second compound 0.316 µM,> 10 µM
same,IC50,second compound 1 µM,> 10 µM
same,IC50,second compound 3.16 µM,> 10 µM
same,IC50,second compound 10 µM,> 10 µM
same,"viability, T/C",[1],114%
same,"viability, T/C",[2],99.6%
same,"viability, T/C",[3],93.8%
same,"viability, T/C",[4],124%
same,"viability, T/C",[5],98.2%
same,"viability, T/C",[6],64.6%
same,"viability, T/C",[7],127%
same,"viability, T/C",[8],130%
same,"viability, T/C",[9],93.2%
same,"viability, T/C",[10],89.8%
same,"viability, T/C",[11],55.6%
same,"viability, T/C",[12],60.4%
same,"viability, T/C",[13],90.6%
same,"viability, T/C",[14],109%
same,"viability, T/C",[15],57.4%
same,"viability, T/C",[16],86.5%
same,"viability, T/C",[17],86.9%
same,"viability, T/C",[18],78.4%
same,"viability, T/C",[19],88.8%
same,"viability, T/C",[20],75.8%
same,"viability, T/C",[21],108%
same,"viability, T/C",[22],75.9%
same,"viability, T/C",[23],81%
same,"viability, T/C",[24],71.4%
same,"viability, T/C",[25],65.9%
same,"viability, T/C",[26],76.9%
same,"viability, T/C",[27],66.9%
same,"viability, T/C",[28],75%
same,"viability, T/C",[29],58.6%
same,"viability, T/C",[30],80.3%
same,"viability, T/C",[31],69.4%
same,"viability, T/C",[32],63.4%
same,"viability, T/C",[33],65.8%
same,"viability, T/C",[34],68.5%
same,"viability, T/C",[35],74.8%
same,"viability, T/C",[36],82.7%
CC1COCCN1c1cc(C2(S(C)(=N)=O)CC2)nc(-c2ccnc3[nH]ccc23)n1 (stereo not drawn) + Cc1[nH]c2ccc(F)cc2c1-c1nc2c3cccnc3c3ncccc3c2[nH]1,IC50,second compound 0.0316 µM,> 10 µM
same,IC50,second compound 0.1 µM,> 10 µM
same,IC50,second compound 0.316 µM,> 10 µM
same,IC50,second compound 1 µM,> 10 µM
same,IC50,second compound 3.16 µM,> 10 µM
same,IC50,second compound 10 µM,> 10 µM
same,"viability, T/C",[1],87.1%
same,"viability, T/C",[2],91.3%
same,"viability, T/C",[3],96%
same,"viability, T/C",[4],113%
same,"viability, T/C",[5],82.8%
same,"viability, T/C",[6],81.3%
same,"viability, T/C",[7],68.2%
same,"viability, T/C",[8],106%
same,"viability, T/C",[9],75.4%
same,"viability, T/C",[10],73.6%
same,"viability, T/C",[11],91.7%
same,"viability, T/C",[12],79.3%
same,"viability, T/C",[13],121%
same,"viability, T/C",[14],111%
same,"viability, T/C",[15],104%
same,"viability, T/C",[16],87.8%
same,"viability, T/C",[17],67.3%
same,"viability, T/C",[18],96.2%
same,"viability, T/C",[19],71.8%
same,"viability, T/C",[20],81.6%
same,"viability, T/C",[21],75.8%
same,"viability, T/C",[22],73.7%
same,"viability, T/C",[23],61.4%
same,"viability, T/C",[24],75.3%
same,"viability, T/C",[25],74.8%
same,"viability, T/C",[26],79.5%
same,"viability, T/C",[27],87%
same,"viability, T/C",[28],55.6%
same,"viability, T/C",[29],73.2%
same,"viability, T/C",[30],54.6%
same,"viability, T/C",[31],65.2%
same,"viability, T/C",[32],74.7%
same,"viability, T/C",[33],55%
same,"viability, T/C",[34],60.2%
same,"viability, T/C",[35],67.8%
same,"viability, T/C",[36],44.1%
